Test results published in US20190249218A1, “Method, Medium and Kit for Detecting Multiple Aminoglycoside Resistance Including 16S rRNA Methylase Mediated Resistance in Gram-Negative Bacteria” (priority 2016, published 2019).

Key:
Test in all cases: MIC by broth microdilution
S. marcescens = assay type: cell-based, Serratia marcescens; details: AAC(3)-I
Method: (§1) MICs of amikacin and gentamicin were determined using the broth microdilution method in cation-adjusted Mueller-Hinton broth, as recommended by the Clinical Laboratory Standard Institute (CLSI) guidelines (8). Amikacin and gentamicin sulfate (Fluorochem, Dertbyshire, UK) were tested over a range of dilutions from 0.25 to 256 μg/ml. A final inoculum of 5.10^5 CFU/ml of each strain was distributed in the 96 wells tray (Sarstedt, Ntimbrecht, Germany). All experiments were repeated in triplicate and E. coli ATCC 25922 was used as quality control. According to the CLSI breakpoints (9), Enterobacteriaceae isolates with gentamicin MICs≤4 and amikacin MICs≤16 mg/L were categorized as susceptible, while those with gentamicin MICs≥16 and amikacin MICs≥64 mg/L were categorized as resistant.
(§2) MICs of amikacin and gentamicin were determined as described above in Example 1.

E. coli = assay type: cell-based, Escherichia coli
Method: as §1, §2

A. baumannii = assay type: cell-based, Acinetobacter baumannii
Method: as §1, §2

K. pneumoniae = assay type: cell-based, Klebsiella pneumoniae
Method: as §1, §2

E. cloacae = assay type: cell-based, Enterobacter cloacae
Method: as §1, §2

P. stuartii = assay type: cell-based, Providencia stuartii
Method: as §1, §2

P. mirabilis = assay type: cell-based, Proteus mirabilis
Method: as §1, §2

[1] = isolate 92/31, E. coli, AAC(3)-IV
[2] = isolate 1488, E. coli, AAC(6′)-II
[3] = isolate 4000, E. coli, APH(3′)-I + AAC(3)-V
[4] = isolate FR136, E. coli ATCC 25922, AG susceptible
[5] = isolate R1436, E. coli, AG susceptible
[6] = isolate R1438, E. coli, AG susceptible
[7] = isolate R2278, E. coli ATCC 35218, AG susceptible
[8] = isolate R4100, E. coli TOP10, npmA
[9] = isolate RP4, E. coli, APH(3′)-Ib
[10] = isolate pFCT1163, E. coli, AAC(6′)-Ia
[11] = isolate pFCT4392, E. coli, AAC(3)-Ia
[12] = isolate 1800, K. pneumoniae, AAC(6′)-I + AAC(3)-I
[13] = isolate 13000, K. pneumoniae, APH(3′)-I + AAC(3)-V
[14] = isolate 22233, K. pneumoniae, AAC(3)-V
[15] = isolate N34, K. pneumoniae, rmtC
[16] = isolate R108, K. pneumoniae, armA
[17] = isolate R347, K. pneumoniae, AG susceptible
[18] = isolate R500, K. pneumoniae, armA
[19] = isolate R502, K. pneumoniae, rmtF
[20] = isolate R2160, K. pneumoniae, rmtG
[21] = isolate R2257, K. pneumoniae, armA
[22] = isolate S155, K. pneumoniae, AG susceptible
[23] = isolate 1110, E. cloacae, ANT(2″)
[24] = isolate HM, E. cloacae, AG susceptible
[25] = isolate R713, E. cloacae, AG susceptible
[26] = isolate R1433, E. cloacae, AG susceptible
[27] = isolate R2258, E. cloacae, armA
[28] = isolate BM2667, P. stuartii, APH(3′)-VI + AAC(2′)
[29] = isolate R265, P. stuartii, rmtC
[30] = isolate R2260, P. mirabilis, AG susceptible

Substance: Gentamicin
- Gentamicin Phenotype (S. marcescens; isolate 4290, S. marcescens): R (gentamicin MICs≥16)
- MIC (S. marcescens; isolate 4290, S. marcescens): 64 µg/mL
- MIC (S. marcescens; strain 4290, S. marcescens): 64 µg/mL
- Gentamicin Phenotype (E. coli; isolate 62Carb, E. coli, rmtB): R (gentamicin MICs≥16)
- Gentamicin Phenotype (E. coli; [1]): R (gentamicin MICs≥16)
- MIC (E. coli; [1]): 16 µg/mL
- Gentamicin Phenotype (E. coli; isolate 97, E. coli, AAC(3)-IV): R (gentamicin MICs≥16)
- MIC (E. coli; isolate 97, E. coli, AAC(3)-IV): 32 µg/mL
- Gentamicin Phenotype (E. coli; isolate 390, E. coli, AAC(3)-IV): R (gentamicin MICs≥16)
- MIC (E. coli; isolate 1054 (first entry), E. coli, AAC(6′)-I): 8 µg/mL
- MIC (E. coli; isolate 1054 (second entry), E. coli, AAC(6′)-I): 8 µg/mL
- Gentamicin Phenotype (E. coli; [2]): R (gentamicin MICs≥16)
- MIC (E. coli; [2]): 16 µg/mL
- Gentamicin Phenotype (E. coli; [3]): R (gentamicin MICs≥16)
- MIC (E. coli; [3]): 64 µg/mL
- Gentamicin Phenotype (E. coli; isolate 22089, E. coli, AAC(3)-I + AAC(3)-V): R (gentamicin MICs≥16)
- Gentamicin Phenotype (E. coli; isolate 122971, E. coli, ANT(2″)): R (gentamicin MICs≥16)
- Gentamicin Phenotype (E. coli; isolate E28, E. coli, rmtB): R (gentamicin MICs≥16)
- Gentamicin Phenotype (E. coli; [4]): S (gentamicin MICs≤4)
- MIC (E. coli; [4]): 0.5 µg/mL
- Gentamicin Phenotype (E. coli; isolate R107, E. coli, rmtB): R (gentamicin MICs≥16)
- Gentamicin Phenotype (E. coli; isolate R262, E. coli, rmtC): R (gentamicin MICs≥16)
- Gentamicin Phenotype (E. coli; isolate R451, E. coli, rmtC): R (gentamicin MICs≥16)
- Gentamicin Phenotype (E. coli; isolate R989, E. coli, armA): R (gentamicin MICs≥16)
- Gentamicin Phenotype (E. coli; isolate R990, E. coli, rmtB): R (gentamicin MICs≥16)
- Gentamicin Phenotype (E. coli; isolate R1012, E. coli, armA): R (gentamicin MICs≥16)
- Gentamicin Phenotype (E. coli; [5]): S (gentamicin MICs≤4)
- MIC (E. coli; [5]): 1 µg/mL
- Gentamicin Phenotype (E. coli; [6]): S (gentamicin MICs≤4)
- MIC (E. coli; [6]): 1 µg/mL
- Gentamicin Phenotype (E. coli; [7]): S (gentamicin MICs≤4)
- MIC (E. coli; [7]): 1 µg/mL
- Gentamicin Phenotype (E. coli; [8]): R (gentamicin MICs≥16)
- MIC (E. coli; [8]): 64 µg/mL
- Gentamicin Phenotype (E. coli; [9]): S (gentamicin MICs≤4)
- MIC (E. coli; [9]): 1 µg/mL
- Gentamicin Phenotype (E. coli; [10]): S (gentamicin MICs≤4)
- MIC (E. coli; [10]): 4 µg/mL
- Gentamicin Phenotype (E. coli; [11]): R (gentamicin MICs≥16)
- MIC (E. coli; [11]): 32 µg/mL
- Gentamicin Phenotype (E. coli; isolate pWP701, E. coli, AAC(3)-IV): R (gentamicin MICs≥16)
- MIC (E. coli; strain 92/31, E. coli, AAC(3)-IV): 16 µg/mL
- MIC (E. coli; strain 97, E. coli, AAC(3)-IV): 32 µg/mL
- MIC (E. coli; strain 1054a, E. coli, AAC(6′)-I): 8 µg/mL
- MIC (E. coli; strain 1054b, E. coli, AAC(6′)-I): 8 µg/mL
- MIC (E. coli; strain 1488, E. coli, AAC(6′)-II): 16 µg/mL
- MIC (E. coli; strain 4000, E. coli, APH(3′)-I + AAC(3)-V): 64 µg/mL
- MIC (E. coli; strain R1436, E. coli, susceptible): 1 µg/mL
- MIC (E. coli; strain R1438, E. coli, susceptible): 1 µg/mL
- MIC (E. coli; strain R2278, E. coli ATCC 35218, susceptible): 1 µg/mL
- MIC (E. coli; strain R2298, E. coli ATCC 25922, susceptible): 1 µg/mL
- MIC (E. coli; strain R4100, E. coli, npmA): 258 µg/mL
- MIC (E. coli; strain RP4, E. coli, APH(3′)-Ib): 2 µg/mL
- MIC (E. coli; strain pFCT1163, E. coli, AAC(6′)-Ia): 4 µg/mL
- MIC (E. coli; strain pFCT4392, E. coli, AAC(3)-Ia): 32 µg/mL
- MIC (A. baumannii; strain 4996, A. baumannii, AAC(6′)-I): 4 µg/mL
- MIC (A. baumannii; strain 8541, A. baumannii, APH(3′)-VI): 0.5 µg/mL
- MIC (A. baumannii; strain BM2580, A. baumannii, APH(3′)-VI): 2 µg/mL
- MIC (A. baumannii; strain R264, A. baumannii, armA): >256 µg/mL
- MIC (A. baumannii; strain R1395, A. baumannii, susceptible): 1 µg/mL
- Gentamicin Phenotype (K. pneumoniae; [12]): R (gentamicin MICs≥16)
- MIC (K. pneumoniae; [12]): 16 µg/mL
- Gentamicin Phenotype (K. pneumoniae; [13]): R (gentamicin MICs≥16)
- MIC (K. pneumoniae; [13]): 128 µg/mL
- Gentamicin Phenotype (K. pneumoniae; [14]): R (gentamicin MICs≥16)
- MIC (K. pneumoniae; [14]): 128 µg/mL
- Gentamicin Phenotype (K. pneumoniae; [15]): R (gentamicin MICs≥16)
- MIC (K. pneumoniae; [15]): >256 µg/mL
- Gentamicin Phenotype (K. pneumoniae; [16]): R (gentamicin MICs≥16)
- MIC (K. pneumoniae; [16]): >256 µg/mL
- Gentamicin Phenotype (K. pneumoniae; [17]): S (gentamicin MICs≤4)
- MIC (K. pneumoniae; [17]): 0.5 µg/mL
- Gentamicin Phenotype (K. pneumoniae; [18]): R (gentamicin MICs≥16)
- MIC (K. pneumoniae; [18]): >256 µg/mL
- Gentamicin Phenotype (K. pneumoniae; [19]): R (gentamicin MICs≥16)
- MIC (K. pneumoniae; [19]): >256 µg/mL
- Gentamicin Phenotype (K. pneumoniae; [20]): R (gentamicin MICs≥16)
- MIC (K. pneumoniae; [20]): >256 µg/mL
- Gentamicin Phenotype (K. pneumoniae; [21]): R (gentamicin MICs≥16)
- MIC (K. pneumoniae; [21]): >256 µg/mL
- Gentamicin Phenotype (K. pneumoniae; [22]): S (gentamicin MICs≤4)
- MIC (K. pneumoniae; [22]): 0.5 µg/mL
- MIC (K. pneumoniae; strain 1800, K. pneumoniae, AAC(6′)-I + AAC(3)-I): 16 µg/mL
- MIC (K. pneumoniae; strain 13000, K. pneumoniae, APH(3′)-I + AAC(3)-V): 128 µg/mL
- MIC (K. pneumoniae; strain 22233, K. pneumoniae, AAC(3)-V): 128 µg/mL
- MIC (K. pneumoniae; strain N34, K. pneumoniae, rmtC): >256 µg/mL
- MIC (K. pneumoniae; strain R108, K. pneumoniae, armA): >256 µg/mL
- MIC (K. pneumoniae; strain R347, K. pneumoniae, susceptible): 0.5 µg/mL
- MIC (K. pneumoniae; strain R500, K. pneumoniae, armA): >256 µg/mL
- MIC (K. pneumoniae; strain R502, K. pneumoniae, rmtF): >256 µg/mL
- MIC (K. pneumoniae; strain R2160, K. pneumoniae, rmtG): >256 µg/mL
- MIC (K. pneumoniae; strain R2257, K. pneumoniae, armA): >256 µg/mL
- MIC (K. pneumoniae; strain S155, K. pneumoniae, susceptible): 0.5 µg/mL
- Gentamicin Phenotype (E. cloacae; [23]): R (gentamicin MICs≥16)
- MIC (E. cloacae; [23]): 32 µg/mL
- Gentamicin Phenotype (E. cloacae; [24]): S (gentamicin MICs≤4)
- MIC (E. cloacae; [24]): 2 µg/mL
- Gentamicin Phenotype (E. cloacae; [25]): S (gentamicin MICs≤4)
- MIC (E. cloacae; [25]): 0.5 µg/mL
- Gentamicin Phenotype (E. cloacae; [26]): S (gentamicin MICs≤4)
- MIC (E. cloacae; [26]): 2 µg/mL
- Gentamicin Phenotype (E. cloacae; [27]): R (gentamicin MICs≥16)
- MIC (E. cloacae; [27]): >256 µg/mL
- MIC (E. cloacae; strain 1110, E. cloacae, ANT(2″)): 32 µg/mL
- MIC (E. cloacae; strain HM, E. cloacae, susceptible): 2 µg/mL
- MIC (E. cloacae; strain R713, E. cloacae, susceptible): 0.5 µg/mL
- MIC (E. cloacae; strain R1433, E. cloacae, susceptible): 2 µg/mL
- MIC (E. cloacae; strain R2258, E. cloacae, armA): >256 µg/mL
- Gentamicin Phenotype (P. stuartii; [28]): S (gentamicin MICs≤4)
- MIC (P. stuartii; [28]): 8 µg/mL
- Gentamicin Phenotype (P. stuartii; isolate R38, P. stuartii, rmtC): R (gentamicin MICs≥16)
- MIC (P. stuartii; isolate R38, P. stuartii, rmtC): >256 µg/mL
- Gentamicin Phenotype (P. stuartii; [29]): R (gentamicin MICs≥16)
- MIC (P. stuartii; [29]): >256 µg/mL
- MIC (P. stuartii; strain BM2667, P. stuartii, APH(3′)-VI + AAC(2′)): 16 µg/mL
- MIC (P. stuartii; strain R38, P. stuartii, rmtC): >256 µg/mL
- MIC (P. stuartii; strain R265, P. stuartii, rmtC): >256 µg/mL
- Gentamicin Phenotype (P. mirabilis; [30]): S (gentamicin MICs≤4)
- MIC (P. mirabilis; [30]): 4 µg/mL
- MIC (P. mirabilis; strain R263, P. mirabilis, armA): >256 µg/mL
- MIC (P. mirabilis; strain R2260, P. mirabilis, susceptible): 4 µg/mL
